{"source": "patent US20260232851A1", "about": "“METHODS FOR THE DETECTION AND DIAGNOSIS OF CANCERS ASSOCIATED WITH OVEREXPRESSION OF PSMA RECEPTOR” (CLARITY PHARMACEUTICALS LIMITED, priority 2023, published 2026)", "key": {"PSMA receptor [1]": {"molecular_target": "T1, PSMA receptor (Homo sapiens, UniProt Q04609)", "T1 construct": "localises at sites that overexpress the PSMA receptor and are indicative of a cancer; from tissue; host or cells: Primary prostate cancer and metastatic lesions (lymph node, bone, prostatic bed) in living patients", "T1 sequence (Q04609 whole entry)": "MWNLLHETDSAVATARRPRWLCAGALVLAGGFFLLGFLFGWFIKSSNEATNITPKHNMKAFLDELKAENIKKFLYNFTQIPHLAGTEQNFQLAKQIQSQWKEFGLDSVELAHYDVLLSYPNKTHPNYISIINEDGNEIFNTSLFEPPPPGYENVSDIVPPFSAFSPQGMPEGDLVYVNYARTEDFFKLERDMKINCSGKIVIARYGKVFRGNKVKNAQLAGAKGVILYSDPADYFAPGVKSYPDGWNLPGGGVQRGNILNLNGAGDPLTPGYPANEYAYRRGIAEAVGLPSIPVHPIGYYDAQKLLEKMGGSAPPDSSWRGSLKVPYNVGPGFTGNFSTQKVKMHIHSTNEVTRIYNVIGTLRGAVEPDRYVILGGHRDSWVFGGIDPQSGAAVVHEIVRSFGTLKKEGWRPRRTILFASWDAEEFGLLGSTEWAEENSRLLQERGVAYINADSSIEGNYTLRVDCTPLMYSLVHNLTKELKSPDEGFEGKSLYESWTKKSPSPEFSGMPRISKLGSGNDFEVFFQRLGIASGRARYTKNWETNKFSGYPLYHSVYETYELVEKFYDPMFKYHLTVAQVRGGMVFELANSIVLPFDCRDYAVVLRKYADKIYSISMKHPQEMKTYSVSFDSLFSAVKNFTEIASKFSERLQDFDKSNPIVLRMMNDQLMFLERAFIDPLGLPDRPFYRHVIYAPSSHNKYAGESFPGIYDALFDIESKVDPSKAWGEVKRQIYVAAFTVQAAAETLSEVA", "experiment": "Blinded central reader detection of primary prostate cancer and lesions on PET/CT", "type": "in vivo", "conditions": "for % TPR (True Positive Rate), detection of primary prostate cancer: 200 MBq ^64Cu-Sar-bisPSMA; for % FNR (False Negative Rate): indeterminate results analysed as negative; for Detection of secondary lesion in lymph node by PET/CT (FIG. 3): same subject imaged with both tracers", "procedure": "Patients with untreated, histopathology-proven, intermediate- to high-risk PC, planned for radical prostatectomy underwent ^68Ga-PSMA-11 PET/CT per institutional practice and were subsequently allocated to 1 out of 3 dose cohorts (1:1:3) to receive either 100 MBq, 150 MBq or 200 MBq of ^64Cu-SAR-bisPSMA, respectively. The specified dose of ^64Cu-Sar-bisPSMA was administered to each patient as a single bolus IV injection. […] PET/CT scans at other times after injection of the compound were acquired as required.\nPatients were scanned using the standard clinical whole-body PET/CT acquisition protocol defined for each clinical site and in accordance with the Image Acquisition Manual, which contains details of scan acquisition, processing parameters and quality assurance procedures. The same scanner was used for each visit. Typical imaging acquisition parameters are below:\nTwo independent, blinded, central readers assessed the detection of primary PC on the 200 MBq ^64Cu-SAR-bisPSMA PET/CTs as the primary endpoint. To compare the intensity of lesions on ^68Ga-PSMA-11 and ^64Cu-SAR-bisPSMA PET, both readers determined the SUVs (SUVmax, SUVmean) and tumour-to-background ratio (ratio of lesion SUVmax and background SUVmean) in up to 5 concordant lesions between ^68Ga-PSMA-11 and ^64Cu-SAR-bisPSMA PET/CT as an exploratory endpoint.\nTable 5 compares the number of positive, negative and indeterminate images as assessed by each reader. Reader 1 detected primary prostate cancer in 100% of patients to whom 200 MBq of ^64Cu-Sar-bisPSMA was administered, while Reader 2 detected 85.7% of patients. This is in contrast to 77.8% and 83.3%, respectively, when ^68Ga-PSMA-11 was administered.\nThe number of lesions detected by each reader with imaging by either ^64Cu-Sar-bisPSMA or ^68Ga-PSMA-11 was evaluated. For both readers, the total number of lesions, the mean and median number of lesions detected as a result of imaging by ^64Cu-Sar-bisPSMA was higher when compared with imaging by ^68Ga-PSMA-11, with the difference in these values being statistically significant."}, "PSMA receptor [2]": {"molecular_target": "T1, PSMA receptor", "experiment": "Same-day (Day 0) versus next-day (Day 1) PET imaging of patients", "type": "in vivo"}, "[3]": {"conditions": "Reader 1, 200 MBq cohort, scans/evaluable scans"}, "[4]": {"conditions": "Reader 2, 200 MBq cohort, 4 ^64Cu scans excluded as non-evaluable"}, "[5]": {"conditions": "next-day imaging, Day 1, same subject"}}, "note": "“Also recorded” adds a separate entry of the source. Marks after values point to notes of the source that are not given here."}
{"substance": "Sar-bisPSMA [^64Cu-SAR-bisPSMA]", "values": [{"measurement": "Mean Difference in number of lesions (^64Cu − ^68Ga)", "setting": "PSMA receptor [1]; 200 MBq Cohort, Reader 1", "value": 0.28}, {"measurement": "Mean Number of Lesions per Participant", "setting": "PSMA receptor [1]; 200 MBq Cohort, Reader 1", "value": 2.3}, {"measurement": "Median Difference in number of lesions (^64Cu − ^68Ga)", "setting": "PSMA receptor [1]; 200 MBq Cohort, Reader 1", "value": 0.0}, {"measurement": "Median Number of Lesions per Participant", "setting": "PSMA receptor [1]; 200 MBq Cohort, Reader 1", "value": 2}, {"measurement": "Total # of Lesions Detected (all participants)", "setting": "PSMA receptor [1]; 200 MBq Cohort, Reader 1", "value": 41}, {"measurement": "Mean Difference in number of lesions (^64Cu − ^68Ga)", "setting": "PSMA receptor [1]; 200 MBq Cohort, Reader 2", "value": 0.64}, {"measurement": "Mean Number of Lesions per Participant", "setting": "PSMA receptor [1]; 200 MBq Cohort, Reader 2", "value": 2.2}, {"measurement": "Median Difference in number of lesions (^64Cu − ^68Ga)", "setting": "PSMA receptor [1]; 200 MBq Cohort, Reader 2", "value": 0.0}, {"measurement": "Median Number of Lesions per Participant", "setting": "PSMA receptor [1]; 200 MBq Cohort, Reader 2", "value": 2}, {"measurement": "Total # of Lesions Detected (all participants)", "setting": "PSMA receptor [1]; 200 MBq Cohort, Reader 2", "value": 31}, {"measurement": "Mean Difference in number of lesions (^64Cu − ^68Ga)", "setting": "PSMA receptor [1]; All Cohorts, Reader 1 (N = 29)", "value": 0.41}, {"measurement": "Mean Number of Lesions per Participant", "setting": "PSMA receptor [1]; All Cohorts, Reader 1 (N = 29)", "value": 2.2}, {"measurement": "Median Difference in number of lesions (^64Cu − ^68Ga)", "setting": "PSMA receptor [1]; All Cohorts, Reader 1 (N = 29)", "value": 0.0}, {"measurement": "Median Number of Lesions per Participant", "setting": "PSMA receptor [1]; All Cohorts, Reader 1 (N = 29)", "value": 2}, {"measurement": "Total # of Lesions Detected (all participants)", "setting": "PSMA receptor [1]; All Cohorts, Reader 1 (N = 29)", "value": 63}, {"measurement": "Mean Difference in number of lesions (^64Cu − ^68Ga)", "setting": "PSMA receptor [1]; All Cohorts, Reader 2 (N = 17)", "value": 0.52}, {"measurement": "Mean Number of Lesions per Participant", "setting": "PSMA receptor [1]; All Cohorts, Reader 2 (N = 17)", "value": 2}, {"measurement": "Median Difference in number of lesions (^64Cu − ^68Ga)", "setting": "PSMA receptor [1]; All Cohorts, Reader 2 (N = 17)", "value": 0.0}, {"measurement": "Median Number of Lesions per Participant", "setting": "PSMA receptor [1]; All Cohorts, Reader 2 (N = 17)", "value": 4}, {"measurement": "Total # of Lesions Detected (all participants)", "setting": "PSMA receptor [1]; All Cohorts, Reader 2 (N = 17)", "value": 34}, {"measurement": "% TPR (True Positive Rate), detection of primary prostate cancer", "setting": "PSMA receptor [1]; Reader 1", "value": 100.0, "unit": "%"}, {"measurement": "Positive images (primary prostate cancer)", "setting": "PSMA receptor [1]; Reader 1, 200 MBq ^64Cu-Sar-bisPSMA cohort, scans/evaluable scans", "value": "18/18"}, {"measurement": "% TPR (True Positive Rate), detection of primary prostate cancer", "setting": "PSMA receptor [1]; Reader 1, listed as 64Cu-Sar-bisPSMA", "value": 100, "unit": "%"}, {"measurement": "Indeterminate images", "setting": "PSMA receptor [1]; [3]", "value": "0/18"}, {"measurement": "Negative images", "setting": "PSMA receptor [1]; [3]", "value": "0/18"}, {"measurement": "% FNR (False Negative Rate)", "setting": "PSMA receptor [1]; Reader 1", "value": 0.0, "unit": "%"}, {"measurement": "% TPR (True Positive Rate), detection of primary prostate cancer", "setting": "PSMA receptor [1]; Reader 2", "value": 85.7, "unit": "%"}, {"measurement": "Indeterminate images", "setting": "PSMA receptor [1]; [4]", "value": "2/14*"}, {"measurement": "Negative images", "setting": "PSMA receptor [1]; [4]", "value": "0/14*"}, {"measurement": "Positive images (primary prostate cancer)", "setting": "PSMA receptor [1]; [4]", "value": "12/14*"}, {"measurement": "% FNR (False Negative Rate)", "setting": "PSMA receptor [1]; Reader 2", "value": 14.3, "unit": "%"}, {"measurement": "Total, mean and median number of lesions detected compared with ^68Ga-PSMA-11", "setting": "PSMA receptor [1]; both readers", "value": "higher"}, {"measurement": "Detection of secondary lesion in lymph node by PET/CT (FIG. 3)", "setting": "PSMA receptor [1]", "value": "Detection of a secondary lesion"}, {"measurement": "Detection of secondary lesion in lymph node by PET/CT (FIG. 3)", "setting": "PSMA receptor [1]; listed as compound of Formula (I) complexed with ^64Cu", "value": "clearly identifies a lesion"}, {"measurement": "Increase of SUVmax, next-day compared to same-day imaging (FIG. 7)", "setting": "PSMA receptor [2]; Day 1 vs Day 0", "value": "more than double"}, {"measurement": "SUVmax Day 1 relative to previous day (FIG. 9)", "setting": "PSMA receptor [2]; Day 1 vs same day", "value": 4, "unit": "times"}, {"measurement": "Average SUVmax for the bone and pelvic lymph node lesions (FIG. 11B)", "setting": "PSMA receptor [2]; following day imaging, same patient", "value": 20.0}, {"measurement": "Lesion visualisation on PET (words)", "setting": "PSMA receptor [2]; next-day imaging (Day 1), FIGS. 8-12, listed as 64Cu Sar-bisPSMA", "value": "clearly identified a lesion"}, {"measurement": "Lesion visualisation on PET (words)", "setting": "PSMA receptor [2]; next-day imaging (Day 1), FIGS. 8-12, listed as 64Cu-Sar-bisPSMA", "value": "identified by three readers; also recorded: more positive lesions; also recorded: only visualised with imaging on the following day; also recorded: additional positive lesions"}, {"measurement": "Lesion visualisation on PET (words)", "setting": "PSMA receptor [2]; next-day imaging (Day 1), FIGS. 8-12, listed as compound of Formula (I) complexed with ^64Cu", "value": "successfully identifies a lesion"}, {"measurement": "SUVmax of lesion (FIG. 9C)", "setting": "PSMA receptor [2]; [5]", "value": 17.5}, {"measurement": "SUVmax of positive pelvic lymph node lesion (FIG. 7)", "setting": "PSMA receptor [2]; [5]", "value": 50.4}, {"measurement": "Average SUVmax for the bone and pelvic lymph node lesions (FIG. 11A)", "setting": "PSMA receptor [2]; same day imaging, one patient", "value": 9.8}, {"measurement": "Lesion visualisation on PET (words)", "setting": "PSMA receptor [2]; same-day imaging (Day 0), FIGS. 8-9, listed as 64Cu Sar-bisPSMA", "value": "negative"}, {"measurement": "Lesion visualisation on PET (words)", "setting": "PSMA receptor [2]; same-day imaging (Day 0), FIGS. 8-9, listed as 64Cu-Sar-bisPSMA", "value": "less apparent; also recorded: not visualised"}, {"measurement": "Lesion visualisation on PET (words)", "setting": "PSMA receptor [2]; same-day imaging (Day 0), FIGS. 8-9, listed as compound of Formula (I) complexed with ^64Cu", "value": "does not clearly visualise a lesion"}, {"measurement": "SUVmax of positive pelvic lymph node lesion (FIG. 7)", "setting": "PSMA receptor [2]; same-day imaging, Day 0, one subject", "value": 20.8}, {"measurement": "SUVmax of lesion (FIG. 9B)", "setting": "PSMA receptor [2]; same-day imaging, same subject", "value": 4.3}]}
